Results from ChEMBL document CHEMBL3098048, “TMEDA-derived biscationic amphiphiles: An economical preparation of potent antibacterial agents” (2014).

Experiments:
Assay type in all cases: functional
Pseudomonas aeruginosa = experiment: Antibacterial activity against wild-type Pseudomonas aeruginosa PAO1 assessed as growth inhibition after 72 hrs by broth microdilution method; settings: PAO1, 72 h
Staphylococcus aureus = experiment: Antibacterial activity against Staphylococcus aureus SH1000 assessed as growth inhibition after 72 hrs by broth microdilution method; settings: SH1000, 72 h
Enterococcus faecalis = experiment: Antibacterial activity against Enterococcus faecalis OG1RF assessed as growth inhibition after 72 hrs by broth microdilution method
Escherichia coli = experiment: Antibacterial activity against Escherichia coli MC4100 assessed as growth inhibition after 72 hrs by broth microdilution method; settings: MC4100, 72 h

SMILES	MIC (Pseudomonas aeruginosa)	MIC (Staphylococcus aureus)	MIC (Enterococcus faecalis)	MIC (Escherichia coli)
CCCCCCCC[N+](C)(C)CCN(C)C	> 1000 µM	> 1000 µM	> 1000 µM	> 1000 µM
CCCCCCCCCCCCCCCCCC[N+](C)(C)CC[N+](C)(C)CCCCCCCCCCCCCCCC	63 µM	16 µM	32 µM	32 µM
CCCCCCCCCCCCCCCCCCCC[N+](C)(C)CC[N+](C)(C)CCCCCCCCCCCCCC	63 µM	8 µM	16 µM	16 µM
CCCCCCCCCCCCCCCCCCCC[N+](C)(C)CC[N+](C)(C)CCCCCCCCCCCC	63 µM	8 µM	4 µM	32 µM
CCCCCCCCCCC[N+](C)(C)CC[N+](C)(C)CCCCCCCCCC	4 µM	1 µM	4 µM	4 µM
CCCCCCCCCCCCCCCCCC[N+](C)(C)CCN(C)C	63 µM	2 µM	4 µM	63 µM
CCCCCCCCCCCCCCCCCC[N+](C)(C)CC[N+](C)(C)CCCCCCCCCCCCCC	63 µM	8 µM	16 µM	16 µM
CCCCCCCCCCCC[N+](C)(C)CCN(C)C	250 µM	32 µM	63 µM	63 µM
CCCCCCCC[N+](C)(C)CC[N+](C)(C)CCCCCCCC	500 µM	32 µM	500 µM	250 µM
CCCCCCCCCCCCCCCC[N+](C)(C)CC[N+](C)(C)CCCCCCCCCCCCCC	63 µM	8 µM	2 µM	16 µM
CCCCCCCCCCCCCC[N+](C)(C)CCN(C)C	125 µM	2 µM	8 µM	16 µM
CCCCCCCCCCCCCCCCCC[N+](C)(C)CC[N+](C)(C)CCCCCCCCCCCCCCCCCC	500 µM	32 µM	63 µM	250 µM
CCCCCCCCCC[N+](C)(C)CCN(C)C	250 µM	63 µM	250 µM	250 µM
CCCCCCCCCC[N+](C)(C)CC[N+](C)(C)CCCCCCCC	125 µM	8 µM	63 µM	63 µM
CCCCCCCCCCCCCCCCCCCC[N+](C)(C)CC[N+](C)(C)CCCCCCCCCCCCCCCC	63 µM	16 µM	32 µM	63 µM
CCCCCCCCCCCCCCCCCCCC[N+](C)(C)CCN(C)C	125 µM	4 µM	4 µM	63 µM

More lines, now with the values ahead:

MIC (Pseudomonas aeruginosa)	MIC (Staphylococcus aureus)	MIC (Enterococcus faecalis)	MIC (Escherichia coli)	SMILES
4 µM	2 µM	2 µM	2 µM	CCCCCCCCCCCCCCCC[N+](C)(C)CC[N+](C)(C)CCCCCCCC
4 µM	1 µM	4 µM	4 µM	CCCCCCCCCCCC[N+](C)(C)CC[N+](C)(C)CCCCCCCC
4 µM	4 µM	1 µM	2 µM	CCCCCCCCCCCCCC[N+](C)(C)CC[N+](C)(C)CCCCCCCCCC
32 µM	4 µM	2 µM	4 µM	CCCCCCCCCCCCCC[N+](C)(C)CC[N+](C)(C)CCCCCCCCCCCCCC
32 µM	4 µM	4 µM	16 µM	CCCCCCCCCCCCCCCCCC[N+](C)(C)CC[N+](C)(C)CCCCCCCCCCCC
63 µM	8 µM	8 µM	32 µM	CCCCCCCCCCCCCCCC[N+](C)(C)CC[N+](C)(C)CCCCCCCCCCCCCCCC
16 µM	4 µM	16 µM	16 µM	CCCCCCCCCCCCCCCCCCCC[N+](C)(C)CC[N+](C)(C)CCCCCCCCCC
16 µM	1 µM	16 µM	16 µM	CCCCCCCCCCCCCCCC[N+](C)(C)CCN(C)C
4 µM	1 µM	2 µM	2 µM	CCCCCCCCCCCCCC[N+](C)(C)CC[N+](C)(C)CCCCCCCC
4 µM	1 µM	1 µM	2 µM	CCCCCCCCCCCC[N+](C)(C)CC[N+](C)(C)CCCCCCCCCCCC
32 µM	4 µM	4 µM	8 µM	CCCCCCCCCCCCCCCC[N+](C)(C)CC[N+](C)(C)CCCCCCCCCC
32 µM	2 µM	2 µM	8 µM	CCCCCCCCCCCCCCCCCC[N+](C)(C)CC[N+](C)(C)CCCCCCCC
2 µM	1 µM	1 µM	2 µM	CCCCCCCCCCCCC[N+](C)(C)CC[N+](C)(C)CCCCCCCCCC
32 µM	8 µM	4 µM	8 µM	CCCCCCCCCCCCCCCC[N+](C)(C)CC[N+](C)(C)CCCCCCCCCCCC
32 µM	4 µM	4 µM	16 µM	CCCCCCCCCCCCCCCCCCCC[N+](C)(C)CC[N+](C)(C)CCCCCCCC
8 µM	1 µM	2 µM	2 µM	CCCCCCCCCCCCCC[N+](C)(C)CC[N+](C)(C)CCCCCCCCCCCC
2 µM	1 µM	2 µM	2 µM	CCCCCCCCCCCC[N+](C)(C)CC[N+](C)(C)CCCCCCCCCC
8 µM	2 µM	8 µM	16 µM	CCCCCCCCCC[N+](C)(C)CC[N+](C)(C)CCCCCCCCCC
32 µM	4 µM	2 µM	16 µM	CCCCCCCCCCCCCCCCCC[N+](C)(C)CC[N+](C)(C)CCCCCCCCCC
